ChEMBL document CHEMBL1770124, “Synthesis and in vitro evaluation of [18F]fluoroethyl triazole labelled [Tyr3]octreotate analogues using click chemistry” (Bioorg Med Chem Lett, 2011)
Where a SMILES comes first, the peptide text is derived from it. Bridges are numbered along the chain shown (N, C = ends). [ ]: non-standard residue; d: D form. The star is where a group is joined. Threoninol(2S,3R) = C[C@@H](O)[C@H](CO)N*

Tests used:
[1] = Displacement of [111In]-DTPA-octreotide from somatostatin receptor in rat AR42J cells; type: cell-based; conditions: ar-42j
[2] = Partition coefficient, log D of the compound; type: physicochemical; conditions: octanol/water
[3] = Displacement of [125I]-somatostatin-14 from somatostatin receptor in rat AR42J cells; type: cell-based; conditions: ar-42j

SMILES | IC50 [1] [µM] | logD [2] | IC50 [3] [µM]
C#CC(=O)NCC(=O)NCCOCCOCCOCCOCCOCCOCCC(=O)N[C@H](Cc1ccccc1)C(=O)N[C@H]1CSSC[C@@H](C(=O)N[C@H](C(=O)O)[C@@H](C)O)NC(=O)[C@H]([C@@H](C)O)NC(=O)[C@H](CCCCN)NC(=O)[C@@H](Cc2c[nH]c3ccccc23)NC(=O)[C@H](Cc2ccc(O)cc2)NC1=O | 0.00523 | – | –
C[C@@H](O)[C@H](NC(=O)[C@@H]1CSSC[C@H](NC(=O)[C@@H](Cc2ccccc2)NC(=O)CCOCCOCCOCCOCCOCCOCCNC(=O)CNC(=O)c2cn(CC[18F])nn2)C(=O)N[C@@H](Cc2ccc(O)cc2)C(=O)N[C@H](Cc2c[nH]c3ccccc23)C(=O)N[C@@H](CCCCN)C(=O)N[C@@H]([C@@H](C)O)C(=O)N1)C(=O)O | 0.0108 | -2.68 | –
C[C@@H](O)[C@H](NC(=O)[C@@H]1CSSC[C@H](NC(=O)[C@@H](Cc2ccccc2)NC(=O)CCOCCOCCOCCOCCOCCOCCNC(=O)CCc2cn(CC[18F])nn2)C(=O)N[C@@H](Cc2ccc(O)cc2)C(=O)N[C@H](Cc2c[nH]c3ccccc23)C(=O)N[C@@H](CCCCN)C(=O)N[C@@H]([C@@H](C)O)C(=O)N1)C(=O)O | 0.0132 | -2.77 | –
C[C@@H](O)[C@@H]1NC(=O)[C@@H](NC(=O)[C@@H](Cc2cc3ccccc3[nH]2)NC(=O)CNC(=O)CCNC(=O)c2cn(CC[18F])nn2)CSSC[C@@H](C(=O)N[C@@H](CCCCN)C(=O)O)NC(=O)[C@H](Cc2ccc(O)cc2)NC(=O)[C@H]([C@@H](C)O)NC(=O)[C@@H](Cc2ccccc2)NC1=O | > 10000 | -1.14 | –
C[C@@H](O)[C@H](CO)NC(=O)[C@@H]1CSSC[C@H](NC(=O)[C@H](N)Cc2ccccc2)C(=O)N[C@@H](Cc2ccccc2)C(=O)N[C@H](Cc2c[nH]c3ccccc23)C(=O)N[C@@H](CCCCN)C(=O)N[C@@H]([C@@H](C)O)C(=O)N1 (H-[dF]CF[dW]KTC-{Threoninol(2S,3R)}; disulfide 2-7) | – | – | 0.0147

Further lines, with some results ahead:

IC50 [1] [µM] | logD [2] | SMILES | IC50 [3] [µM]
0.004 | -1.83 | C[C@@H](O)[C@H](NC(=O)[C@@H]1CSSC[C@H](NC(=O)[C@@H](Cc2ccccc2)NC(=O)CNC(=O)c2cn(CC[18F])nn2)C(=O)N[C@@H](Cc2ccc(O)cc2)C(=O)N[C@H](Cc2c[nH]c3ccccc23)C(=O)N[C@@H](CCCCN)C(=O)N[C@@H]([C@@H](C)O)C(=O)N1)C(=O)O | –
0.0051 | – | C#CCCC(=O)NCCOCCOCCOCCOCCOCCOCCC(=O)N[C@H](Cc1ccccc1)C(=O)N[C@H]1CSSC[C@@H](C(=O)N[C@H](C(=O)O)[C@@H](C)O)NC(=O)[C@H]([C@@H](C)O)NC(=O)[C@H](CCCCN)NC(=O)[C@@H](Cc2c[nH]c3ccccc23)NC(=O)[C@H](Cc2ccc(O)cc2)NC1=O | –
0.0014 | – | C#CC(=O)NCC(=O)N[C@H](Cc1ccccc1)C(=O)N[C@H]1CSSC[C@@H](C(=O)N[C@H](C(=O)O)[C@@H](C)O)NC(=O)[C@H]([C@@H](C)O)NC(=O)[C@H](CCCCN)NC(=O)[C@@H](Cc2c[nH]c3ccccc23)NC(=O)[C@H](Cc2ccc(O)cc2)NC1=O | –
0.0018 | – | C#CCCC(=O)N[C@H](Cc1ccccc1)C(=O)N[C@H]1CSSC[C@@H](C(=O)N[C@H](C(=O)O)[C@@H](C)O)NC(=O)[C@H]([C@@H](C)O)NC(=O)[C@H](CCCCN)NC(=O)[C@@H](Cc2c[nH]c3ccccc23)NC(=O)[C@H](Cc2ccc(O)cc2)NC1=O | –
0.001 | – | C#CC(=O)NCCC(=O)NCC(=O)N[C@H](Cc1ccccc1)C(=O)N[C@H]1CSSC[C@@H](C(=O)N[C@H](C(=O)O)[C@@H](C)O)NC(=O)[C@H]([C@@H](C)O)NC(=O)[C@H](CCCCN)NC(=O)[C@@H](Cc2c[nH]c3ccccc23)NC(=O)[C@H](Cc2ccc(O)cc2)NC1=O | –
0.0029 | -1.5 | C[C@@H](O)[C@H](NC(=O)[C@@H]1CSSC[C@H](NC(=O)[C@@H](Cc2ccccc2)NC(=O)CCc2cn(CC[18F])nn2)C(=O)N[C@@H](Cc2ccc(O)cc2)C(=O)N[C@H](Cc2c[nH]c3ccccc23)C(=O)N[C@@H](CCCCN)C(=O)N[C@@H]([C@@H](C)O)C(=O)N1)C(=O)O | –
